The source of these data is US7572825B2, “Ketones and reduced ketones as therapeutic agents for the treatment of bone conditions” (The University Court of the University of Aberdeen, priority 2003, dated 2009).

Structures are written as SMILES. Where only a bound is given, the exact number is not on record here.

One test relates to osteoblasts. The test can be described thus: Alamar Blue mouse osteoblast assay. The class given is cell-based. Conditions: 72 hours exposure, read-out: IC50 against osteoblasts (survival). How it is done: Osteoblasts were isolated as described above and plated at 10^4 cells/well in 96-well plates in 100 μL of αMEM supplemented with 10% FCS and antibiotics. Test compounds were added after 24 hours and left for 72 hours. Cell viability was assessed using the Alamar Blue assay as described for J774 macrophages. Alamar Blue (Biosource International) was added undiluted to each well (1:10 v/v, 10 μL). The plate was incubated at 37° C. for 3 to 4 hours and the fluorescence was measured at 570 nm, with a 25 nm bandwidth.
Osteoblast Isolation. Briefly, osteoblasts were isolated from the calvarial bones of 2-day-old mice by sequential collagenase digestion (type I collagenase, Sigma) and cultured in αMEM supplemented with 10% FCS (foetal calf serum) and penicillin and streptomycin at 37° C. in 5% CO2.
More specifically, osteoblasts were obtained from a collagenase digestion of the calvaria (skull bones) of 2-3 day old neo-natal MF1 mice. At this stage in their development these are soft and easily removed. The calvaria from 5-6 mice were carefully dissected and washed in HBSS (Hank's balanced saline solution). The calvaria were placed in a 15 mL tube and shaken at 37° C. in 4 mL collagenase (10 mg/ml) for 10 minutes. This removes the excess unwanted tissue. The liquid was disposed of and a further 4 mL collagenase (10 mg/ml) added to the tube. The calvaria were then digested for a further 30 minutes. […]
(Alamar Blue is a resazurin reagent that responds to reducing activity.)

The next test concerns J774 macrophages. The test can be described thus: Alamar Blue macrophage J774 viability assay. Conditions: Mus musculus, 72 hours exposure, J774 macrophage cell line, read-out: IC50 against J774 macrophages (viability). The format is cell-based. The procedure:
Initial screening of candidate compounds was performed using viability assays, on cultures of the macrophage cell line J774, which have been used before as a model system for osteoclast survival (see, e.g., Luckman et al., 1998). The assay is based on the survival of the J774 macrophage cell line; macrophages are closely related to osteoclasts, and contain similar high levels of esterase activity.
J774 cells were plated at 10^4 cells per well in 150 μL αMEM (α Modified Eagle Medium) in 96-well plates and grown overnight. The next day, compounds were added to the cultures, and culture was continued for another 72 hours. At the end of the culture period cell survival was determined using an Alamar Blue assay as previously described (see, e.g., Nociari et al., 1998).
Alamar Blue is an oxidation-reduction sensitive indicator. The dye itself is in the oxidised state, which is blue and non-fluorescent. […] Thus the transformation from oxidised form to reduced form can be measured by fluorimetric or colourimetric means. For fluorescence measurements, 530-560 nm excitation and 590 nm emission wavelengths are typically used. For colourimetric measurements, absorbance is measured at 570 nm (reduced form) and 600 nm (oxidised form) and a simple calculation performed to determine the relative quantities of the two species. […]

For test [1], the system named is ovariectomy induced bone loss. Kind of test: Ovariectomy induced bone loss in mice, trabecular bone mineral density by pQCT. The format is in vivo. Conditions: OVX female C57/BL6 mice, 20 mg/kg by gavage in olive oil, 21 days, tibial metaphysis. How it is done:
Animals. Female 9 week-old C57/BL6 mice. Animals were housed in a designated animal facility and routinely maintained on a 12 h:12 h light:dark cycle and given ad libitum access to food and water. Ovariectomy induced bone loss. Bilateral ovariectomy (Ovx) was performed under general anaesthesia. Sham ovariectomy (Sham) was similarly performed but with externalisation and replacement of the ovaries. Animals were given a gavage of (a) candidate compound (e.g., 20 mg/kg) in vehicle (olive oil), or (b) vehicle (olive oil). After 21 days, the animals were killed, and the tibial bones were dissected and used for bone mineral density measurements. Bone Mineral Measurements. Measurements of bone mineral density (BMD) at the left proximal tibial metaphysis were determined by peripheral quantitative computed tomography (pQCT) using an XCT Research M bone densitometer with a voxel size of 70 μm and analysis software version 5.1.4. (Stratec Medizintechnik, Pforzheim, Germany). Daily quality assurance measurements were performed using a plexi-coated PVC-fluorinated hydrocarbon phantom according to the manufacturer's instructions.

For the compound `OCCCCCC(O)c1ccc(-c2ccccc2)cc1` (centres unmarked) [ABD-150, 1-Biphenyl-4-yl-hexan-1,6-diol], the IC50 in the test on osteoblasts is > 100 µM; in the test with J774 macrophages it was < 20 µM.
Turning to `O=C(CCCCCO)c1ccc(-c2ccccc2)cc1` [ABD-68, 6-Hydroxy-1-(4-biphenyl)hexan-1-one], the figures for the IC50 in the test with osteoblasts and in the test on J774 macrophages were > 100 µM and < 20 µM, respectively. The “reversal of ovariectomy-induced bone loss (percent change in trabecular BMD)” value in test [1] is “very effective at reversing the bone loss”.

As usually defined, the IC50 is the midpoint of a concentration-inhibition curve.
